The values below come from patent publication US10561318B2, “Device, system and method for quantifying fluorescence and optical properties” (University Health Network, priority 2010, dated 2020).

Details of this series: species or system patients. On the procedure: Another example study is now described. In this example study, 14 patients with a variety of intracranial pathologies (including low- and high-grade gliomas, meningioma, and intracranial lung metastases, as indicated in FIG. 17) were administered 20-mg/kg of ALA 3 hours prior to induction of anesthesia. The neurosurgeon performed a conventional standard craniotomy procedure with image-guidance using a surgical microscope modified for PpIX fluorescence. At the surgical bed, the surgeon acquired multiple sets of measurements using an example probe, with corresponding tissue specimens collected and processed for histopathological analysis. […] In addition, the surgeon scored the visible fluorescence as viewed through the fluorescence-capable surgical microscope (scores from 0-4). All specimens were assessed as either normal or abnormal, such that presence of tumor cells was assessed as abnormal.
Receiver-Operator Characteristic Analysis: The receiver-operator characteristic (ROC) curves were generated using the PpIX concentrations as the parameter comparing normal tissue to these tumor populations: all tumors, all gliomas, low-grade gliomas (LGGs), high-grade gliomas (HGGs), meningiomas and metastases. […] The uncorrected fluorescence metric was the magnitude of the PpIX fluorescence peak from the raw fluorescence spectrum, i.e. Fx,m at 635 nm (see Eqs. 1 and 4). […]

As to `C=CC1=C(C)c2cc3[nH]c(cc4nc(cc5[nH]c(cc1n2)c(C)c5CCC(=O)O)C(CCC(=O)O)=C4C)c(C)c3C=C` [PpIX, protoporphyrin IX], the “tumor-to-normal (T/N) ratio of in vivo PpIX concentration” value (human) stood at 200. Also, where the note is “in vivo”, the “PpIX in abnormal tissue compared to normal tissue” value is listed as “approximately at least five times more PpIX”.
